This is an account of results in patent publication US20230045421A1 (priority 2018, published 2023).

One experiment has as its system HBV rcDNA. Description: HepDE19 assay with bDNA quantitation of HBV rcDNA. It counts as cell-based, hepatitis B virus. The note with it: HepDE19 assay, inhibition of formation of rcDNA; read-out: DE-19bDNA EC50. In short, it runs like this:
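Compounds, top concentration 25 μM in 8-point duplicate series, were applied to Tet-free HepDE19 cultures for 7 days. Branched-DNA quantitation of HBV rcDNA against untreated wells gave EC50 and EC90 by 4-parameter fit. Viability (CC50) came from ATP luminescence on parallel plates incubated 4 days.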
Regarding `COc1ncc(C(CCO)NC(=O)Nc2ccc(F)c(Cl)c2)c2ccccc12` (single isomer, unassigned) [Compound 77, 1-(3-Chloro-4-fluorophenyl)-3-(3-hydroxy-1-(1-methoxyisoquinolin-4-yl)propyl)urea], the EC50 came out at 7.4 µM.
The same measure, in the same setting: the same measure for `CC(C)CN(C(=O)Nc1ccc(F)c(Cl)c1)C(C)c1c[nH]c(=O)c2cnccc12` (single isomer, unassigned) [Compound 253, 3-(3-Chloro-4-fluorophenyl)-1-isobutyl-1-(1-(1-oxo-1,2-dihydro-2,7-naphthyridin-4-yl)ethyl)urea]: 1.4 µM; for `CCOCCN(C(=O)Nc1ccc(F)c(Cl)c1)C(C)c1cnc(OC)c2ccccc12` (single isomer, unassigned) [Compound 125, 3-(3-Chloro-4-fluorophenyl)-1-(2-ethoxyethyl)-1-(1-(1-methoxyisoquinolin-4-yl)ethyl)urea]: 20 µM.
Same read-out and setting: the value for `CCN(C(=O)Nc1ccc(F)c(Cl)c1)C(C)c1cnc(OC)c2ccccc12` (single isomer, unassigned) [Compound 22, 3-(3-Chloro-4-fluorophenyl)-1-ethyl-1-(1-(1-methoxyisoquinolin-4-yl)ethyl)urea] was 9.6 µM.
Still for that read-out and setting: the value for `CC(c1cnc(NCCO)c2ccccc12)N(C)C(=O)Nc1ccc(F)c(Cl)c1` (single isomer, unassigned) [Compound 242, 3-(3-Chloro-4-fluorophenyl)-1-(1-(1-((2-hydroxyethyl)amino)isoquinolin-4-yl)ethyl)-1-methylurea] was 0.17 µM; that for `COc1ncc(C(C)N(C(=O)Nc2ccc(F)c(Cl)c2)C2CC2)c2ccccc12` (single isomer, unassigned) [Compound 57, 3-(3-Chloro-4-fluorophenyl)-1-cyclopropyl-1-(1-(1-methoxyisoquinolin-4-yl)ethyl)urea] was 0.24 µM.
`CC(c1c[nH]c(=O)c2ccc(Cl)cc12)N(C)C(=O)Nc1ccc(F)c(Cl)c1` (single isomer, unassigned) [Compound 171, 1-(1-(6-Chloro-1-oxo-1,2-dihydroisoquinolin-4-yl)ethyl)-3-(3-chloro-4-fluorophenyl)-1-methylurea]: the EC50 worked out at 5.4 µM.

Still in this experiment, the particulars now being: HepDE19 assay, inhibition of formation of relaxed circular DNA (rcDNA), bDNA quantitation; read-out: DE-19bDNA EC50.
For the molecule `CC(c1c[nH]c(=O)c2c(F)c(F)ccc12)N(C)C(=O)Nc1cc(F)c(F)c(F)c1` (single isomer, unassigned) [Compound 443, 1-(1-(7,8-Difluoro-1-oxo-1,2-dihydroisoquinolin-4-yl)ethyl)-1-methyl-3-(3,4,5-trifluorophenyl)urea], the EC50 stood at 0.04 µM.
Still for that read-out and setting: the value for `CC(c1c[nH]c(=O)c2c(F)cc(F)cc12)N(C)C(=O)Nc1ccc(F)c(Cl)c1` (single isomer, unassigned) [Compound 369, 3-(3-Chloro-4-fluorophenyl)-1-(1-(6,8-difluoro-1-oxo-1,2-dihydroisoquinolin-4-yl)ethyl)-1-methylurea] was 0.019 µM; that for `CCN(C(=O)Nc1ccc(F)c(Cl)c1)C(C)c1c[nH]c(=O)c2cc(F)c(F)cc12` (single isomer, unassigned) [Compound 406, 3-(3-Chloro-4-fluorophenyl)-1-(1-(6,7-difluoro-1-oxo-1,2-dihydroisoquinolin-4-yl)ethyl)-1-ethylurea] was 2.1 µM.
The same measure, in the same setting: the same measure for `CC(c1c[nH]c(=O)c2cc(F)c(F)cc12)N(C)C(=O)Nc1ccc(F)cc1` (single isomer, unassigned) [Compound 285, 1-(1-(6,7-Difluoro-1-oxo-1,2-dihydroisoquinolin-4-yl)ethyl)-3-(4-fluorophenyl)-1-methylurea]: 4.3 µM; for `CC(c1c[nH]c(=O)c2c(F)c(F)ccc12)N(C)C(=O)Nc1ccc(F)c(C(F)F)c1` (single isomer, unassigned) [Compound 503, 1-(1-(7,8-Difluoro-1-oxo-1,2-dihydroisoquinolin-4-yl)ethyl)-3-(3-(difluoromethyl)-4-fluorophenyl)-1-methylurea]: 0.86 µM; for `Cc1ncc(C(C)N(C)C(=O)Nc2ccc(F)c(Cl)c2)c2ccccc12` (single isomer, unassigned) [Compound 352, 3-(3-Chloro-4-fluorophenyl)-1-methyl-1-(1-(1-methylisoquinolin-4-yl)ethyl)urea]: 9.9 µM.
Still for that read-out and setting: the value for `CC(C)CN(C(=O)Nc1ccc(F)c(Cl)c1)C(C)c1c[nH]c(=O)c2c(F)cc(F)cc12` (single isomer, unassigned) [Compound 446, 3-(3-Chloro-4-fluorophenyl)-1-(1-(6,8-difluoro-1-oxo-1,2-dihydroisoquinolin-4-yl)ethyl)-1-isobutylurea] was 0.59 µM; that for `CC(C)CN(C(=O)Nc1ccc(F)c(Cl)c1)C(C)c1cnc(-n2cncn2)c2ccccc12` (single isomer, unassigned) [Compound 344, 1-(1-(1-(1H-1,2,4-triazol-1-yl)isoquinolin-4-yl)ethyl)-3-(3-chloro-4-fluorophenyl)-1-isobutylurea] was 2.3 µM.
In the case of `CC(c1c[nH]c(=O)c2c(F)c(F)ccc12)N(CCS(N)(=O)=O)C(=O)Nc1ccc(F)cc1` (single isomer, unassigned) [Compound 395, 2-(1-(1-(7,8-Difluoro-1-oxo-1,2-dihydroisoquinolin-4-yl)ethyl)-3-(4-fluorophenyl)ureido)ethane-1-sulfonamide], the EC50 was 0.3 µM.
Still for that read-out and setting: the same measure for `CC(c1c[nH]c(=O)c2c(F)c(F)ccc12)N(C)C(=O)Nc1ccc(F)c(Cl)c1` (single isomer, unassigned) [Compound 330, 3-(3-Chloro-4-fluorophenyl)-1-(1-(7,8-difluoro-1-oxo-1,2-dihydroisoquinolin-4-yl)ethyl)-1-methylurea]: 0.99 µM.
Consider `CC(c1c[nH]c(=O)c2c(F)c(F)ccc12)N(C)C(=O)NCc1cc(F)c(F)c(F)c1` (single isomer, unassigned) [Compound 493, 1-(1-(7,8-Difluoro-1-oxo-1,2-dihydroisoquinolin-4-yl)ethyl)-1-methyl-3-(3,4,5-trifluorobenzyl)urea], for which the EC50 is 15 µM.

Still in this experiment, the particulars now being: Hepatitis B virus, HepDE19, HepDE19 assay, inhibition of formation of rcDNA; read-out: DE-19bDNA EC50.
For `CNC(=O)CN(C(=O)Nc1ccc(F)c(Cl)c1)C(C)c1c[nH]c(=O)c2ccccc12` (single isomer, unassigned) [Compound 129, 2-(3-(3-Chloro-4-fluorophenyl)-1-(1-(1-oxo-1,2-dihydroisoquinolin-4-yl)ethyl)ureido)-N-methylacetamide], the EC50 stood at 0.53 µM.
On to `COCCCN(Cc1cnc(OC)c2ccccc12)C(=O)Nc1ccc(F)c(Cl)c1` [Compound 47, 3-(3-Chloro-4-fluorophenyl)-1-((1-methoxyisoquinolin-4-yl)methyl)-1-(3-methoxypropyl)urea], for which the EC50 is 2 µM.
The same measure, in the same setting: the same measure for `COc1ncc(CN(C(=O)Nc2ccc(F)c(Cl)c2)C2CC2)c2ccccc12` [Compound 34, 3-(3-Chloro-4-fluorophenyl)-1-cyclopropyl-1-((1-methoxyisoquinolin-4-yl)methyl)urea]: 3.7 µM; for `CC(NC(=O)Nc1ccc(F)c(Cl)c1)c1c[nH]c(=O)c2ccccc12` (single isomer, unassigned) [Compound 10, 1-(3-Chloro-4-fluorophenyl)-3-(1-(1-oxo-1,2-dihydroisoquinolin-4-yl)ethyl)urea]: 3.4 µM; for `[2H]C([2H])([2H])C([2H])([2H])N(C(=O)Nc1ccc(F)c(Cl)c1)[C@H](C)c1c[nH]c(=O)c2ccccc12` [Compound 99, (R)-3-(3-Chloro-4-fluorophenyl)-1-(ethyl-d5)-1-(1-(1-oxo-1,2-dihydroisoquinolin-4-yl)ethyl)urea]: 0.03 µM.
Still for that read-out and setting: the value for `CC(c1c[nH]c(=O)c2cc(F)ccc12)N(C)C(=O)Nc1ccc(F)cc1` (racemic) [Compound 258, 3-(4-Fluorophenyl)-1-(1-(7-fluoro-1-oxo-1,2-dihydroisoquinolin-4-yl)ethyl)-1-methylurea] was 0.15 µM; that for `COCCN(Cc1cnc(OC)c2ccccc12)C(=O)Nc1ccc(F)c(Cl)c1` [Compound 41, 3-(3-Chloro-4-fluorophenyl)-1-(2-methoxyethyl)-1-((1-methoxyisoquinolin-4-yl)methyl)urea] was 3.8 µM.

Staying with this experiment, now noted: Hepatitis B virus, HepDE19, read-out: DE-19bDNA EC50 (μM), HepDE19 assay, inhibition of formation of rcDNA.
Take `CC(c1c[nH]c(=O)c2ccccc12)N(CC1COC(C)(C)OC1)C(=O)Nc1ccccc1` (single isomer, unassigned) [Compound 275, 1-((2,2-Dimethyl-1,3-dioxan-5-yl)methyl)-1-(1-(1-oxo-1,2-dihydroisoquinolin-4-yl)ethyl)-3-phenylurea]: the EC50 was determined as 0.83 µM.

The same experiment, now with this note: Hepatitis B virus, HepDE19, read-out: DE-19bDNA EC50 (μM), HepDE19 assay, inhibition of formation of relaxed circular DNA (rcDNA), bDNA quantitation.
Consider `C[C@H](c1c[nH]c(=O)c2ccccc12)N(C)C(=O)Nc1ccc(Br)cc1` [Compound 294, (R)-3-(4-Bromophenyl)-1-methyl-1-(1-(1-oxo-1,2-dihydroisoquinolin-4-yl)ethyl)urea], for which the EC50 was found to be 0.87 µM.

Staying with this experiment, now noted: read-out: DE-19bDNA EC50; HepDE19 assay, inhibition of formation of relaxed circular DNA (rcDNA), bDNA quantitation.
As for `CC(c1c[nH]c(=O)c2c(F)c(F)ccc12)N(C)C(=O)Nc1ccccc1` (single isomer, unassigned) [Compound 436, 1-(1-(7,8-difluoro-1-oxo-1,2-dihydroisoquinolin-4-yl)ethyl)-1-methyl-3-phenylurea], the EC50 was 19.2 µM.
Still for that read-out and setting: the same measure for `CC(c1c[nH]c(=O)c2cc(F)c(F)cc12)N(C)C(=O)Nc1cccc(F)c1` (single isomer, unassigned) [Compound 410, 1-(1-(6,7-Difluoro-1-oxo-1,2-dihydroisoquinolin-4-yl)ethyl)-3-(3-fluorophenyl)-1-methylurea]: 2.8 µM.
